Experiment: in vivo
Set-up: species or system cattle
Conditions: both sexes, bovine, 2.2 mg/kg
Protocol: In a second study, the pharmacokinetic profile of the second active component in Formulation 1A, flunixin, was examined. The pharmacokinetic profile of flunixin was evaluated following administration to cattle as the approved single entity flunixin meglumine product, […], and as the combination product Formulation 1A. This study was conducted in four phases using six cattle (3 males, 3 females). All animals received […] intravenously (IV) in the first phase. This was followed, after a washout period, by the administration of […] intramuscularly (IM) to 3 cows and […] subcutaneously (SQ) to 3 cows. In the next phase the animals were crossed over and received […] or SQ. In the final phase, all six cattle received the flunixin/florfenicol combination product (Formulation 1A). All animals received flunixin at a dose of 2.2 mg/kg, regardless of the formulation or route of administration. Blood samples for determination of flunixin concentration were collected at 0, 0.17, 0.5, 0.75, 1, 2, 3, 4, 6, 8, 12 and 24 hours after dosing. At the final phase of the study, the 6 cattle were given Formulation 1A at a dose of 10 mL per 75 kg SQ (equivalent to 40 mg/kg of florfenicol and 2.2 mg/kg of flunixin). The kinetics of flunixin when administered as Formulation 1A are different from the kinetics of flunixin when administered as […]. As such, the clinical dose response of Formulation 1A were ascertained in a subsequent study (described below).

- AUC(0-inf) (im): 10.5 µg·h/mL
- Cmax (im): 3.23 µg/mL
- Tmax (im): 30.6 min
- AUC(0-inf) (iv): 13.6 µg·h/mL
- AUC(0-inf) (sc): 10.9 µg·h/mL
- Cmax (sc): 2.86 µg/mL
- Tmax (sc): 32.4 min
SMILES: Cc1c(Nc2ncccc2C(=O)O)cccc1C(F)(F)F [Flunixin, flunixin meglumine]

— patent publication US6790867B2, “Compositions and method for treating infection in cattle and swine” (Schering-Plough Animal Health Corporation, priority 2002, dated 2004)
